Measured values published in patent US20240199605A1, “SMALL MOLECULAR INHIBITORS OF NF-kB INDUCING KINASE” (Janssen Pharmaceutica NV, priority 2019, published 2024).
Like-named read-outs stand apart in the source and are kept apart here. Values belong to the molecule of their own block, whether it stands above or below them.

Assays:
[1] = molecular target: recombinant human NF-kappaB-inducing kinase (NIK/MAP3K14) (Homo sapiens (Human), UniProt Q99558); assay: Inhibition of auto-phosphorylation of recombinant human NIK/MAP3K14 (AlphaScreen); type: biochemical; settings: NIK auto-phosphorylation, 5 μM ATP, 1 nM NIK, 2 h at 25° C.; average of values
Procedure: Inhibition of auto-phosphorylation of recombinant human NF-kappaB-inducing kinase (NIK/MAP3K14) activity (AlphaScreen®)
NIK/MAP3K14 auto-phosphorylation activity was measured using the AlphaScreen® (αscreen) format (Perkin Elmer). All compounds tested were dissolved in dimethyl sulfoxide (DMSO) and further dilutions were made in assay buffer. The final DMSO concentration was 0.7% (v/v) in assays. The assay buffer was 50 mM Tris pH 7.5 containing 1 mM EGTA (ethylene glycol tetraacetic acid), 1 mM DTT (dithiothreitol), 0.1 mM Na3VO4, 5 mM MgCl2, and 0.01% Tween® 20. The assays were carried out in 384 well Proxiplates (Perkin Elmer). The incubations consisted of the compound, 5 μM Adenosine-5′-triphosphate (ATP), and 1 nM NIK/MAP3K14. Incubations were initiated by the addition of GST-tagged NIK/MAP3K14 enzyme, carried out for 2 h at 25° C. and terminated by addition of stop buffer containing anti-phospho-IKK Ser176/180 antibody. Protein A Acceptor and Glutathione-Donor beads were added before reading using an EnVision® Multilabel Plate Reader (Perkin Elmer). […] IC50's were determined by fitting a sigmoidal curve to % inhibition of control versus Log10 compound concentration.

[2] = test system: p-IKKα levels in L363 (NIK translocated multiple myeloma) cells; assay: Effect of compounds on p-IKKα levels in L363 cells (AlphaLISA SureFire Ultra); type: cell-based, human; settings: BAFF stimulated, MG132, 6 h, average of values, read-out: Assay 2 IC50
Procedure: Effect of Compounds on p-IKKα Levels in L363 (NIK Translocated Multiple Myeloma) Cells
All compounds tested were dissolved and serially diluted in DMSO, 1:3 dilution for 11 points in an Echo compatible plate. 100% DMSO was added to columns 12 and 24 of the plate to serve as high and low signal controls. This compound plate was used to spot 20 nL of compound or DMSO into a Greiner 384 well TC plate (781080). The final DMSO concentration was 0.3% (v/v) in cell assays. Human L363 cells (ATCC) were cultured in RPM11640 medium supplemented with GlutaMax, non-essential amino acids, sodium pyruvate and 10% fetal bovine serum. Cells were routinely maintained at densities of […] at 37° C. in a humidified 5% CO2 atmosphere incubator. Cells were passaged twice a week splitting back to obtain the low density. The day before the assay, cells were washed twice in HBSS (Hank's Balanced Salt Solution), resuspended in Dulbecco's Modified Eagle Medium (DMEM)+0.5% IgG and protease free BSA (Jackson Immuno Research Laboratories), +/−250 ng/ml recombinant human B-cell activating factor (BAFF/BLyS/TNFSF13B) and incubated overnight at 37° C. in a humidified 5% CO2 atmosphere (bulk stimulation with or without BAFF). The next day, the cell concentration was adjusted to 1×10^7 cells/ml in DMEM+/−250 ng/ml BAFF+/−10 μM MG132 and plated at 10 μl/well into compound or DMSO spotted 384 well TC plates. Seeded cells were incubated at 37° C. in a humidified 5% CO2 atmosphere for 6 h. After 6 h, the plates were removed from the incubator and cell lysis was achieved by the addition of 2.5 μl 5× lysis buffer containing protease and phosphatase inhibitors, followed by shaking on a plate shaker at room temperature for 15 min. At the end of this incubation, lysed cells were sequentially treated and incubated with acceptor and donor bead mixes according to the manufacturer's protocol for a 1 plate/2-incubation suspension cell assay (AlphaLISA SureFire Ultra p-IKKa (Ser 176/180) Assay Kit (Perkin Elmer). Plates were read using an EnVision® Multilabel Plate Reader (Perkin Elmer). Within an experiment, a concentration response curve for each compound was run in duplicate. The signal obtained in the test wells was normalized using high signal (BAFF stimulated cells, DMSO, MG132) and low signal (unstimulated cells, DMSO) controls. To determine the IC50, a sigmoidal curve was fitted to the plot of % inhibition versus Log10 compound concentration.

Chain of recombinant human NF-kappaB-inducing kinase (NIK/MAP3K14) (Q99558 whole entry): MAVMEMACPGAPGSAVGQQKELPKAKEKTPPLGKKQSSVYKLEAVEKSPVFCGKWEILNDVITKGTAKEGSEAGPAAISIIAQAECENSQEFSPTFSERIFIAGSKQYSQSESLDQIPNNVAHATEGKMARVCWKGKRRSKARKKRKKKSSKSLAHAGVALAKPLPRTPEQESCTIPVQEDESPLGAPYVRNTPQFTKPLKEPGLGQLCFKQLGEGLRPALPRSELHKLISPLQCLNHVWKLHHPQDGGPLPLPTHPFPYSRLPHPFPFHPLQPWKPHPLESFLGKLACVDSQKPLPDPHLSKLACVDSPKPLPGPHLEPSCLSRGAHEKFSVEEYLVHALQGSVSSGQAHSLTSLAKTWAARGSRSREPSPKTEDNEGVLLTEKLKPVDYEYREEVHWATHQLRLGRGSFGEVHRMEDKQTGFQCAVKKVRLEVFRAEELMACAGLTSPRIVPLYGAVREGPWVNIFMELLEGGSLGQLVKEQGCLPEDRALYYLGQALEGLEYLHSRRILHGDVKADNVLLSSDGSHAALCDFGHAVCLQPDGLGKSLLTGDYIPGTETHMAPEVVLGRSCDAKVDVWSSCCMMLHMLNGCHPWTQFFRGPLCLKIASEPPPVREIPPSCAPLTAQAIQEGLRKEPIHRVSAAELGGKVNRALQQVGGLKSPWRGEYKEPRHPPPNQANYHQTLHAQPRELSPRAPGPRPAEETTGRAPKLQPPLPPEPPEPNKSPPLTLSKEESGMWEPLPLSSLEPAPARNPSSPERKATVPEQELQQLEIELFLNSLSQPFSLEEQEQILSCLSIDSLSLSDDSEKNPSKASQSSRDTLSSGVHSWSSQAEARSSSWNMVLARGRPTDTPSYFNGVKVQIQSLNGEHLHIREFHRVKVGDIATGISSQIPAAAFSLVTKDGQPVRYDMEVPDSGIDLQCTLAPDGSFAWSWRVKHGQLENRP

Compound: Cc1csc([C@](C)(O)C#Cc2cccc(-c3ccc4nc(C)nc(N)c4n3)c2)n1 [Example 180, (R)-4-(3-(4-Amino-2-methylpyrido[3,2-d]pyrimidin-6-yl)phenyl)-2-(4-methylthiazol-2-yl)but-3-yn-2-ol]
IC50 [1]: 0.41 µM | IC50 ([2]; Homo sapiens, L-363, 6 h): > 5 µM

Compound: CCNc1ncnc2ccc(-c3cccc(C#C[C@]4(O)CCN(C)C4=O)c3)nc12 [Example 227, (R)-3-((3-(4-(Ethylamino)pyrido[3,2-d]pyrimidin-6-yl)phenyl)ethynyl)-3-hydroxy-1-methylpyrrolidin-2-one]
IC50 [1]: 0.023 µM | IC50 ([2]; Homo sapiens, L-363, 6 h): 0.54 µM

Compound: CN1CC[C@@](O)(C#Cc2cccc(-c3nc4ncnc(N)c4s3)c2)C1=O [Example 214, (R)-3-((3-(7-Aminothiazolo[4,5-d]pyrimidin-2-yl)phenyl)ethynyl)-3-hydroxy-1-methylpyrrolidin-2-one]
IC50 [1]: 0.32 µM | IC50 ([2]; Homo sapiens, L-363, 6 h): > 5 µM

Compound: [2H]C([2H])([2H])N1CC[C@@](O)(C#Cc2ccc(C)c(-c3ccc4ccnc(N)c4c3)c2)C1=O [Example 70, (R)-3-[2-[3-(1-Amino-7-isoquinolyl)-4-methyl-phenyl]ethynyl]-3-hydroxy-1-(trideuteriomethyl)pyrrolidin-2-one]
IC50 [1]: 0.026 µM | IC50 [2]: 2.21 µM

Compound: Cc1csc([C@@](C)(O)C#Cc2cccc(-c3ccc4nc(C)nc(N)c4n3)c2)n1 [Example 181, (S)-4-(3-(4-Amino-2-methylpyrido[3,2-d]pyrimidin-6-yl)phenyl)-2-(4-methylthiazol-2-yl)but-3-yn-2-ol]
IC50 [1]: > 5 µM | IC50 ([2]; Homo sapiens, L-363, 6 h): > 5 µM

Compound: Cc1nc(N)c2nc(-c3cccc(C#C[C@]4(O)CCN(C)C4=O)c3)c(C)cc2n1 [Example 178, (R)-3-((3-(4-Amino-2,7-dimethylpyrido[3,2-d]pyrimidin-6-yl)phenyl)ethynyl)-3-hydroxy-1-methylpyrrolidin-2-one]
IC50 [1]: 0.018 µM | IC50 ([2]; Homo sapiens, L-363, 6 h): 0.82 µM

Compound: C=CCN1CCC(O)(C#Cc2cccc(-c3ccc4nc(C)nc(N)c4n3)c2)C1=O (racemic) [Example 195, racemic-1-Allyl-3-((3-(4-amino-2-methylpyrido[3,2-d]pyrimidin-6-yl)phenyl)ethynyl)-3-hydroxypyrrolidin-2-one]
IC50 [1]: 0.021 µM | IC50 ([2]; Homo sapiens, L-363, 6 h): 1.13 µM

Compound: Cc1nc(N)c2nc(-c3cccc(C#C[C@@](C)(O)c4cnccn4)c3)ccc2n1 [Example 200, (R)-4-[3-(4-Amino-2-methyl-pyrido[3,2-d]pyrimidin-6-yl)phenyl]-2-pyrazin-2-yl-but-3-yn-2-ol]
IC50 [1]: 0.029 µM | IC50 ([2]; Homo sapiens, L-363, 6 h): 3.19 µM

Compound: Cc1nc(N)c2nc(-c3cccc(C#C[C@]4(O)C(=O)N(C)C[C@@H]4C)c3)ccc2n1 (stereo in doubt) [Example 293, (3S,4S*)-3-((3-(4-Amino-2-methylpyrido[3,2-d]pyrimidin-6-yl)phenyl)ethynyl)-3-hydroxy-1,4-dimethylpyrrolidin-2-one]
IC50 [1]: > 5 µM | IC50 ([2]; Homo sapiens, L-363, 6 h): > 5 µM

Compound: CN1CC[C@@](O)(C#Cc2cccc(-c3ccc4ccnc(N5CCC5)c4n3)c2)C1=O [Example 233, (R)-3-((3-(8-(Azetidin-1-yl)-1,7-naphthyridin-2-yl)phenyl)ethynyl)-3-hydroxy-1-methylpyrrolidin-2-one]
IC50 [1]: 0.52 µM | IC50 ([2]; Homo sapiens, L-363, 6 h): > 5 µM

Compound: Nc1ncnc2cnc(-c3cccc(C#C[C@]4(O)CCc5cccnc54)c3)nc12 [Example 144, (R)-7-((3-(8-Aminopyrimido[5,4-d]pyrimidin-2-yl)phenyl)ethynyl)-6,7-dihydro-5H-cyclopenta[b]pyridin-7-ol]
IC50 [1]: 2.29 µM | IC50 ([2]; Homo sapiens, L-363, 6 h): > 5 µM

The next molecules have a lower IC50 [1] than those just listed; values first:

IC50 [1]: ≤ 0.0005 µM | IC50 ([2]; Homo sapiens, L-363, 6 h): 0.0048 µM
Compound: CN1CC[C@@](O)(C#Cc2cccc(-c3ccc4c(Br)cnc(N)c4n3)c2)C1=O [Example 112, (R)-3-[2-[3-(8-Amino-5-bromo-1,7-naphthyridin-2-yl)phenyl]ethynyl]-3-hydroxy-1-methyl-pyrrolidin-2-one]

IC50 [1]: 0.0007 µM | IC50 ([2]; Homo sapiens, L-363, 6 h): 0.059 µM
Compound: Cc1nc(N)c2nc(-c3cccc(C#C[C@@](C)(O)c4cscn4)c3)ccc2n1 [Example 212, (R)-4-[3-(4-Amino-2-methyl-pyrido[3,2-d]pyrimidin-6-yl)phenyl]-2-thiazol-4-yl-but-3-yn-2-ol]

IC50 [1]: ≤ 0.0005 µM | IC50 ([2]; Homo sapiens, L-363, 6 h): 0.0028 µM
Compound: CN1CC[C@@](O)(C#Cc2cccc(-c3ncc4ncnc(N)c4n3)c2)C1=O [Example 13, (R)-3-[2-[3-(4-Aminopyrimido[5,4-d]pyrimidin-6-yl)phenyl]ethynyl]-3-hydroxy-1-methyl-pyrrolidin-2-one]

IC50 [1]: 0.0008 µM | IC50 ([2]; Homo sapiens, L-363, 6 h): 0.011 µM
Compound: CN1CC[C@@](O)(C#Cc2cccc(-c3cc(-c4ccco4)c4ncnc(N)c4n3)c2)C1=O [Example 312, (R)-3-((3-(4-Amino-8-(furan-2-yl)pyrido[3,2-d]pyrimidin-6-yl)phenyl)ethynyl)-3-hydroxy-1-methylpyrrolidin-2-one]

IC50 [1]: 0.01 µM | IC50 ([2]; Homo sapiens, L-363, 6 h): 0.28 µM
Compound: CC(C)Cc1ccc(C#C[C@]2(O)CCN(C)C2=O)cc1-c1ncc2ccnc(N)c2n1 [Example 54, (R)-3-((3-(8-Aminopyrido[3,4-d]pyrimidin-2-yl)-4-isobutylphenyl)ethynyl)-3-hydroxy-1-methylpyrrolidin-2-one]

IC50 [1]: 0.013 µM | IC50 ([2]; Homo sapiens, L-363, 6 h): > 5 µM
Compound: CN1CC[C@@](O)(C#Cc2cccc(-c3cnc4ncnc(N)c4c3)c2)C1=O [Example 109, (R)-3-((3-(4-Aminopyrido[2,3-d]pyrimidin-6-yl)phenyl)ethynyl)-3-hydroxy-1-methylpyrrolidin-2-one]

IC50 [1]: 0.0036 µM | IC50 ([2]; Homo sapiens, L-363, 6 h): 0.28 µM
Compound: CN1CC[C@@](O)(C#Cc2cccc(-c3ncc4c(CN5CCCCC5)cnc(N)c4n3)c2)C1=O [Example 145, (R)-3-[2-[3-[8-Amino-5-(1-piperidylmethyl)pyrido[3,4-d]pyrimidin-2-yl]phenyl]ethynyl]-3-hydroxy-1-methyl-pyrrolidin-2-one]

IC50 [1]: ≤ 0.0005 µM | IC50 ([2]; Homo sapiens, L-363, 6 h): 0.011 µM
Compound: CN1CC[C@@](O)(C#Cc2cccc(-c3ncc4c(I)cnc(N)c4n3)c2)C1=O [Example 102, (R)-3-((3-(8-Amino-5-iodopyrido[3,4-d]pyrimidin-2-yl)phenyl)ethynyl)-3-hydroxy-1-methylpyrrolidin-2-one]

IC50 [1]: ≤ 0.0005 µM | IC50 ([2]; Homo sapiens, L-363, 6 h): 0.0077 µM
Compound: CN1CC[C@@](O)(C#Cc2cccc(-c3ncc4c(-c5cn[nH]c5)cnc(N)c4n3)c2)C1=O [Example 124, (R)-3-[2-[3-[8-Amino-5-(1H-pyrazol-4-yl)pyrido[3,4-d]pyrimidin-2-yl]phenyl]ethynyl]-3-hydroxy-1-methyl-pyrrolidin-2-one]

IC50 [1]: ≤ 0.0005 µM | IC50 ([2]; Homo sapiens, L-363, 6 h): 0.0061 µM
Compound: CN1CC[C@@](O)(C#Cc2cccc(-c3ncc4c(C#N)cnc(N)c4n3)c2)C1=O [Example 100, (R)-8-Amino-2-(3-((3-hydroxy-1-methyl-2-oxopyrrolidin-3-yl)ethynyl)phenyl)pyrido[3,4-d]pyrimidine-5-carbonitrile]

IC50 [1]: ≤ 0.0005 µM | IC50 ([2]; Homo sapiens, L-363, 6 h): 0.0045 µM
Compound: [2H]C([2H])([2H])N1CCC(O)(C#Cc2cccc(-c3ncc4ccnc(N)c4n3)c2)C1=O (stereo in doubt) [Example 66, (R)-3-[2-[3-(8-Aminopyrido[3,4-d]pyrimidin-2-yl)phenyl]ethynyl]-3-hydroxy-1-(trideuteriomethyl)pyrrolidin-2-one]

IC50 [1]: 0.0006 µM | IC50 ([2]; Homo sapiens, L-363, 6 h): 0.064 µM
Compound: C[C@@](O)(C#Cc1cccc(-c2ccc3ncnc(N)c3c2)c1)c1nccs1 [Example 105, (R)-4-[3-(4-Aminoquinazolin-6-yl)phenyl]-2-thiazol-2-yl-but-3-yn-2-ol]
